Test results reported in ChEMBL document CHEMBL2311449, “Synthesis and evaluation of diphenylphosphinic amides and diphenylphosphine oxides as inhibitors of Kv1.5” (Bioorg Med Chem Lett, 2013).
Values after ≈ are worked out from the molar mass of the structure shown.

Assays:
[1] = Lipophilicity, log D of compound at pH 7.4; format: physicochemical; conditions: buffer
[2] = target: Potassium voltage-gated channel subfamily A member 5 (Homo sapiens, UniProt P22460); experiment: Inhibition of human Kv1.5 channel expressed in CHO cells by high throughput planar patch clamp assay; format: cell-based
Sequence of Potassium voltage-gated channel subfamily A member 5 (P22460 whole entry): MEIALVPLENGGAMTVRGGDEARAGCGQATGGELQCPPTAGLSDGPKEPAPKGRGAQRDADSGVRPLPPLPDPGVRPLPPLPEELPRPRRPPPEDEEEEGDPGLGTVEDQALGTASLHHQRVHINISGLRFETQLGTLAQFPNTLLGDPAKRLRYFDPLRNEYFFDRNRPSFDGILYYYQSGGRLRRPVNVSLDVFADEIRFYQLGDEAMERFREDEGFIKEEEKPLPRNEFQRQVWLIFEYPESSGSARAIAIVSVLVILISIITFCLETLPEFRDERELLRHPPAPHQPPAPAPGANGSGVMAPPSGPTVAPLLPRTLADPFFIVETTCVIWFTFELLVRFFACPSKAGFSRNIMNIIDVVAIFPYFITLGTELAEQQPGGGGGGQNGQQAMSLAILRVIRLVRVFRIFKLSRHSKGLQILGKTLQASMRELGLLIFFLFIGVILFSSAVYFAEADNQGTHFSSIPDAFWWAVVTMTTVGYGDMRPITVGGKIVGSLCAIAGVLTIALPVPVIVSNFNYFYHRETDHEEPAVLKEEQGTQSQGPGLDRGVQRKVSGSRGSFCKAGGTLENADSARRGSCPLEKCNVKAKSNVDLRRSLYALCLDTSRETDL

[3] = target: Voltage-gated inwardly rectifying potassium channel KCNH2 (Homo sapiens, UniProt Q12809)
Sequence of Voltage-gated inwardly rectifying potassium channel KCNH2 (Q12809 whole entry): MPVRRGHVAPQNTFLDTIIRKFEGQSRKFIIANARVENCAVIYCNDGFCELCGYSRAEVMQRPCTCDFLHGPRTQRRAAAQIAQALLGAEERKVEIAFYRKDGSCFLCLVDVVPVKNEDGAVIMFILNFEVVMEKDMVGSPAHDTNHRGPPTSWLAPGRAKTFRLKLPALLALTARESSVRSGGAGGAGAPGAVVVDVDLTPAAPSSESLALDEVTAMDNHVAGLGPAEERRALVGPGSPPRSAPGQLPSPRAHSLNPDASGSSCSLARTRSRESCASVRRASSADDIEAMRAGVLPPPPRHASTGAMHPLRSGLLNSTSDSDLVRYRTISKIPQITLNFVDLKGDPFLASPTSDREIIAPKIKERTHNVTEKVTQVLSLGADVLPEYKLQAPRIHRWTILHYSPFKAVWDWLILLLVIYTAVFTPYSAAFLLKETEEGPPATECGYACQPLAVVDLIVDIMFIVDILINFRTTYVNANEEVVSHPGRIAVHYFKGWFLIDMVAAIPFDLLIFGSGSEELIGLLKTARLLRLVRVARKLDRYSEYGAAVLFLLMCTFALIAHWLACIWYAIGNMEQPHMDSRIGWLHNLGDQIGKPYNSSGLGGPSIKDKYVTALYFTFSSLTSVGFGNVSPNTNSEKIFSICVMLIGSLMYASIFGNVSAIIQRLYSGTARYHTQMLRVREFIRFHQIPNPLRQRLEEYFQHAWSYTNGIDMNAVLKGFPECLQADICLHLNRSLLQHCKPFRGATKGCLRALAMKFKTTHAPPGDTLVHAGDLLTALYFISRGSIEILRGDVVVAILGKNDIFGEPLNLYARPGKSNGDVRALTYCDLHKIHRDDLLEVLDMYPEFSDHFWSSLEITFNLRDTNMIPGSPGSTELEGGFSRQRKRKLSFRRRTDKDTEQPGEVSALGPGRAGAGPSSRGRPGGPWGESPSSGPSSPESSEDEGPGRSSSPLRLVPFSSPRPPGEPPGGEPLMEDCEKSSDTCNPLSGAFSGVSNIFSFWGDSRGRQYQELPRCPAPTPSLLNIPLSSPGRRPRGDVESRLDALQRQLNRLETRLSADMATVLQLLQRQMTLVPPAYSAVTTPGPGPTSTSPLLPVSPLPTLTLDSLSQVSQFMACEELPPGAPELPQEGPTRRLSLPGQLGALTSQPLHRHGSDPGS

[4] = target: Intermediate conductance calcium-activated potassium channel protein 4 (Homo sapiens, UniProt O15554); experiment: Inhibition of IK channel (unknown origin)
Sequence of Intermediate conductance calcium-activated potassium channel protein 4 (O15554 whole entry): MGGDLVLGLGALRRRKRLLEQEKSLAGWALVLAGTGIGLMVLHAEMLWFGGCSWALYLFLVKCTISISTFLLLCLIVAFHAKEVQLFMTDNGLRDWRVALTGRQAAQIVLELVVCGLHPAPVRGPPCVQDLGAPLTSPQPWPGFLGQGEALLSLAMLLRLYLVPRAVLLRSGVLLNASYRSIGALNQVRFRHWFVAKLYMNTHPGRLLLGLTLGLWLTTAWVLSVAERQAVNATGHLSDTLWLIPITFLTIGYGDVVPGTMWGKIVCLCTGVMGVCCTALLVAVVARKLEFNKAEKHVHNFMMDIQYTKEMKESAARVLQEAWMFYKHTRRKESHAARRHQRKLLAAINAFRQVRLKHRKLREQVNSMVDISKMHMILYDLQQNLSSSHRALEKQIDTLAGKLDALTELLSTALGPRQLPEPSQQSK

Oryctolagus cuniculus [5] = experiment: Toxicity in New Zealand white rabbit assessed as CNS effect at 0.1 and 1 umol/kg/min; format: organism-based, Central nervous system; conditions: in vivo
Oryctolagus cuniculus [6] = species on record: Oryctolagus cuniculus; experiment: Toxicity in New Zealand white rabbit assessed as CNS effect at plasma concentration of 3 to 4 times 20% change in atrium effective refractory period; format: organism-based; conditions: in vivo
Plasma = experiment: Unbound steady state plasma concentration in New Zealand white rabbit assessed as concentration required to 20% change in atrium effective refractory period at 0.1 and 1 umol/kg/min for 15 mins infusions; format: ADME, cell-free, Oryctolagus cuniculus; conditions: 0.25 h
Oryctolagus cuniculus [7] = experiment: Increase of effective refractory period in New Zealand white rabbit assessed as maximum change in QT interval at 0.1 and 1 umol/kg/min for 15 mins infusions; format: functional
[8] = Apparent permeability of the compound in human Caco2 cells; format: ADME, cell-based; conditions: Caco-2
[9] = Intrinsic clearance in human liver microsomes; format: ADME, Microsome; conditions: read-out: CLH
[10] = Clearance in rat; format: ADME, organism-based; conditions: in vivo
[11] = Solubility of the compound at pH 7.4; format: physicochemical; conditions: buffer
[12] = Oral bioavailability in rat; format: ADME, organism-based; conditions: in vivo

| SMILES | IC50 [2] | IC50 [3] | IC50 [4] | further results |
| --- | --- | --- | --- | --- |
| CC(C)[C@@H]1CC[C@@H](C)C[C@@H]1P(=O)(c1ccccc1)c1ccccc1 |  |  |  | logD [1]: 6 |
| c1ccc([C@H]([C@@H](c2ccccc2)N2CCCCC2)N2CCCCC2)cc1 | 1700 nM |  |  |  |
| CCCN(c1cccc(C#N)c1)P(=O)(c1ccccc1)c1ccccc1 | 200 nM | > 33000 nM | 2700 nM |  |
| CCCN(c1cccc(S(C)(=O)=O)c1)P(=O)(c1ccccc1)c1ccccc1 | 930 nM | > 33000 nM | > 33000 nM | Activity (Oryctolagus cuniculus [5]): Toxic |
| COc1ccc(-c2ncccc2NP(=O)(c2ccccc2)c2ccccc2)cc1 | 17000 nM | > 33000 nM |  |  |
| O=P(Nc1cc(F)ccc1-n1cccn1)(c1ccccc1)c1ccccc1 | 4100 nM | > 33000 nM | 7800 nM |  |
| O=P(NCc1ccccc1-c1cccnc1)(c1ccccc1)c1ccccc1 | 2300 nM | > 33000 nM | > 33000 nM |  |
| O=P(c1ccccc1)(c1ccccc1)C(c1cccnc1)c1cccnc1 | 180 nM |  | 1000 nM |  |
| O=P(NCc1cccnc1-c1cccc(Cl)c1)(c1ccccc1)c1ccccc1 | 330 nM |  | 4900 nM |  |
| N#Cc1cccc(-c2ncccc2CNP(=O)(c2ccccc2)c2ccccc2)c1 | 540 nM |  | 7700 nM | Activity (Oryctolagus cuniculus [5]): Toxic |
| O=P(NCc1cccnc1-c1cc(Cl)cc(Cl)c1)(c1ccccc1)c1ccccc1 | 80 nM |  | 13000 nM |  |
| O=P(NCc1cccnc1-c1cccnc1)(c1ccccc1)c1ccccc1 | 2700 nM |  | 33000 nM |  |
| CCCN(c1cccnc1)P(=O)(c1ccccc1)c1ccccc1 | 120 nM | > 33000 nM | 14000 nM | Activity (Oryctolagus cuniculus [6]): Toxic; Cp(f)ss (Plasma): 800 nM; Activity (Oryctolagus cuniculus [7]): 23%; logD [1]: 2.6; Papp [8]: 30 ×10⁻⁶ cm/s; microsomal CLint [9]: 158 µL/min/mg; clearance [10]: 11 mL/min/kg; solubility [11]: 91 µM (≈ 30.6 µg/mL); bioavailability [12]: 55% |
| O=P(Nc1cccnc1)(c1ccccc1)c1ccccc1 | > 30000 nM | > 33000 nM |  |  |
| O=P(c1ccccc1)(c1ccccc1)N(c1cccnc1)c1cccnc1 | 1600 nM |  |  |  |
| O=P(c1ccccc1)(c1ccccc1)N(Cc1ccccn1)c1cccnc1 | 530 nM | > 33000 nM | 10000 nM | Activity (Oryctolagus cuniculus [5]): Toxic |
| COCCN(c1cccnc1)P(=O)(c1ccccc1)c1ccccc1 | 620 nM | > 33000 nM | > 33000 nM |  |
| N#CCCCN(c1cccnc1)P(=O)(c1ccccc1)c1ccccc1 | 1900 nM | > 33000 nM | 31000 nM |  |
| O=P(c1ccccc1)(c1ccccc1)N(Cc1ccccn1)Cc1ccccn1 | 1300 nM | > 33000 nM | > 33000 nM | Activity (Oryctolagus cuniculus [5]): Toxic |
| CCCN(c1cncnc1)P(=O)(c1ccccc1)c1ccccc1 | 1000 nM |  | > 33000 nM | Activity (Oryctolagus cuniculus [6]): Toxic; Cp(f)ss (Plasma): 600 nM; Activity (Oryctolagus cuniculus [7]): <10% |
| O=P(c1ccccc1)(c1ccccc1)C(c1ccccc1)c1cccnc1 (racemic) | 100 nM |  | 500 nM |  |
| O=P(c1ccccc1)(c1ccccc1)C(c1cccnc1)N1CCCCC1 (racemic) | 140 nM |  | 1800 nM |  |
| CCCNC(c1cccnc1)P(=O)(c1ccccc1)c1ccccc1 (racemic) | 750 nM |  | 14000 nM |  |
